Measured values taken from PubChem BioAssay (NCI).
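Results reflect a 48-hour exposure of cells in 96-well plates to compound at five concentrations. GI50 = concentration required for 50% inhibition of growth. The concentration for full growth arrest is given as TGI.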

How the values were obtained:
Assay in all cases: DTP human tumour cell line panel, 48 h
[1] = test system: OVCAR-3 ovarian
[2] = test system: SF-295 CNS
[3] = test system: SN12C renal
[4] = test system: MDA-MB-231 breast
[5] = test system: MCF7 breast
[6] = test system: OVCAR-8 ovarian
[7] = test system: MDA-MB-435
[8] = test system: SK-MEL-28 melanoma
[9] = test system: SF-268 CNS
[10] = test system: SF-539 CNS
[11] = test system: SNB-75 CNS
[12] = test system: SR leukemia
[13] = test system: OVCAR-5 ovarian
[14] = test system: NCI-H23 lung
[15] = test system: LOX IMVI melanoma
[16] = test system: T-47D breast
[17] = test system: PC-3 prostate
[18] = test system: CCRF-CEM leukemia
[19] = test system: K-562 leukemia
[20] = test system: CAKI-1 renal
[21] = test system: KM12 colon
[22] = test system: HCC-2998 colon
[23] = test system: UACC-257 melanoma
[24] = test system: IGROV1 ovarian
[25] = test system: MALME-3M melanoma
[26] = test system: NCI/ADR-RES ovarian
[27] = test system: NCI-H226 lung
[28] = test system: NCI-H460 lung
[29] = test system: HCT-116 colon
[30] = test system: NCI-H522 lung
[31] = test system: U251 CNS
[32] = test system: ACHN renal
[33] = test system: HT29 colon
[34] = test system: A549 NSCLC
[35] = test system: SK-OV-3 ovarian
[36] = test system: BT-549 breast
[37] = test system: RPMI-8226 leukemia
[38] = test system: SW-620 colon
[39] = test system: HCT-15 colon
[40] = test system: UACC-62 melanoma
[41] = test system: 786-0 renal
[42] = test system: UO-31 renal
[43] = test system: SNB-19 CNS
[44] = test system: EKVX NSCLC
[45] = test system: COLO 205 colon
[46] = test system: A498 renal
[47] = test system: HOP-62 NSCLC
[48] = test system: DU-145 prostate
[49] = test system: HL-60(TB) leukemia
[50] = test system: HOP-92 NSCLC
[51] = test system: HS 578T breast
[52] = test system: SK-MEL-2 melanoma
[53] = test system: M14 melanoma
[54] = test system: MOLT-4 leukemia
[55] = test system: SK-MEL-5 melanoma
[56] = test system: TK-10 renal
[57] = test system: RXF 393 renal
[58] = test system: OVCAR-4 ovarian

Compound: COc1cc(NCCCN=C(N)NC(N)=NC(C)C)c2ncccc2c1
- GI50 [1]: 0.112 µM
- TGI [1]: 0.876 µM
- GI50 [2]: 79.3 µM
- TGI [2]: > 100 µM
- GI50 [3]: 3.51 µM
- TGI [3]: 27.2 µM
- GI50 [4]: 1.96 µM
- TGI [4]: 14.3 µM
- TGI [5]: 0.0718 µM
- GI50 [6]: 23.5 µM
- TGI [6]: > 87.1 µM
- GI50 [7]: 17.7 µM
- TGI [7]: 35 µM
- GI50 [8]: 13.6 µM
- TGI [8]: 35.2 µM
- GI50 [9]: 4.98 µM
- TGI [9]: > 57.5 µM
- GI50 [10]: 5.08 µM
- TGI [10]: 30 µM
- GI50 [11]: 4.81 µM
- TGI [11]: 28.5 µM
- GI50 [12]: 7.71 µM
- TGI [12]: 45.8 µM
- GI50 [13]: 12.8 µM
- TGI [13]: 43.3 µM
- GI50 [14]: 3.02 µM
- TGI [14]: 29.6 µM
- GI50 [15]: 11.8 µM
- TGI [15]: 42.9 µM
- GI50 [16]: 1.58 µM
- GI50 [17]: 6 µM
- TGI [17]: 35.5 µM
- GI50 [18]: 7.61 µM
- TGI [18]: 45.7 µM
- GI50 [19]: 7.56 µM
- TGI [19]: > 95.1 µM
- GI50 [20]: > 100 µM
- TGI [20]: > 100 µM
- GI50 [21]: 0.633 µM
- TGI [21]: 11.2 µM
- GI50 [22]: 3.29 µM
- TGI [22]: 22.1 µM
- GI50 [23]: 4.31 µM
- TGI [23]: 16.5 µM
- GI50 [24]: 0.467 µM
- TGI [24]: 3.77 µM
- GI50 [25]: 0.813 µM
- TGI [25]: 4.1 µM
- GI50 [26]: > 100 µM
- TGI [26]: > 100 µM
- GI50 [27]: 42.3 µM
- TGI [27]: > 100 µM
- GI50 [28]: 14.6 µM
- TGI [28]: > 79.5 µM
- GI50 [29]: 3.31 µM
- TGI [29]: 30.3 µM
- GI50 [30]: 2.72 µM
- TGI [30]: 9.61 µM
- GI50 [31]: 6.41 µM
- TGI [31]: > 45.1 µM
- GI50 [32]: > 82.8 µM
- TGI [32]: > 100 µM
- GI50 [33]: 6.38 µM
- TGI [33]: > 100 µM
- GI50 [34]: 56.7 µM
- TGI [34]: > 100 µM
- GI50 [35]: > 74.8 µM
- TGI [35]: > 100 µM
- GI50 [36]: 10 µM
- TGI [36]: 22.8 µM
- GI50 [37]: 6.55 µM
- TGI [37]: 26.2 µM
- GI50 [38]: 11.6 µM
- TGI [38]: > 63.5 µM
- GI50 [39]: > 100 µM
- TGI [39]: > 100 µM
- GI50 [40]: 12.2 µM
- TGI [40]: 33 µM
- GI50 [41]: 50.7 µM
- TGI [41]: > 100 µM
- GI50 [42]: > 97.1 µM
- TGI [42]: > 100 µM
- GI50 [43]: 11 µM
- TGI [43]: 64.4 µM
- GI50 [44]: 4.73 µM
- TGI [44]: 22 µM
- GI50 [45]: 0.195 µM
- TGI [45]: 1.92 µM
- GI50 [46]: 36.6 µM
- TGI [46]: > 88.8 µM
- GI50 [47]: 35.2 µM
- TGI [47]: > 84.8 µM
- GI50 [48]: 33.9 µM
- TGI [48]: > 100 µM
- GI50 [49]: 10.8 µM
- TGI [49]: 31.8 µM
- GI50 [50]: 2.54 µM
- TGI [50]: 26.5 µM
- GI50 [51]: 14 µM
- TGI [51]: 46.1 µM
- GI50 [52]: 2.68 µM
- TGI [52]: 10.1 µM
- GI50 [53]: 27.4 µM
- TGI [53]: > 83.1 µM
- GI50 [54]: 6.62 µM
- TGI [54]: > 47.5 µM
- GI50 [55]: 2.17 µM
- TGI [55]: 6.38 µM
- GI50 [56]: 15.7 µM
- TGI [56]: 46.1 µM
- GI50 [57]: 22.8 µM
- TGI [57]: > 91.2 µM
- GI50 [58]: 0.0588 µM
- TGI [58]: 1.64 µM
